SMILES strings stand for the structures.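 These data come from cells grown in 96-well plates and exposed to compound for 48 hours at five concentrations. TGI: total growth inhibition.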 Where a SMILES comes first, the peptide text is derived from it. [ ]: non-standard residue; d: D form. The star is where a group is joined. Bn2Val = CC(C)[C@@H](C(=O)*)N(Cc1ccccc1)Cc1ccccc1; NH(4-Cl-benzyl) = Clc1ccc(CN*)cc1; NMeV = CN[C@H](C(=O)O)C(C)C; dNMeA = CN[C@H](C)C(=O)O

Among the data in PubChem BioAssay (NCI) are TGI values, retold here.

Among the test systems are LOX IMVI melanoma; MDA-N; NCI-H522 lung; OVCAR-4 ovarian; SK-MEL-5 melanoma; SNB-19 CNS; SR leukemia; T-47D breast; 786-0 renal; A498 renal; MALME-3M melanoma.
What all share (test): NCI-60 cell line screen, 48 h

Regarding `C=CCP(=O)(CC=C)C(Cl)Cl`, the TGI with LOX IMVI melanoma, in the test on MDA-N, in the test on NCI-H522 lung, with OVCAR-4 ovarian, with SK-MEL-5 melanoma and in the test on SNB-19 CNS was above 100 µM each time. In addition, the TGI in the test on SR leukemia and with T-47D breast was above 100 µM in each case.

Take `O=C(N/N=C/C=C/c1ccccc1)c1ccccc1Nc1ccccc1C(=O)N/N=C/C=C/c1ccccc1`: the TGI in the test on 786-0 renal, with A498 renal, in the test on MALME-3M melanoma, in the test with MDA-N, in the test with OVCAR-4 ovarian and in the test on SK-MEL-5 melanoma was above 100 µM throughout. The TGI in the test on SNB-19 CNS, in the test with SR leukemia and in the test on T-47D breast was above 100 µM each time.

On to `Cc1ccc(S(=O)CC(CF)OCn2cc(C)c(=O)[nH]c2=O)cc1` (stereo not drawn), for which the TGI with 786-0 renal, with LOX IMVI melanoma, in the test with MALME-3M melanoma, in the test with MDA-N, in the test with NCI-H522 lung and in the test with OVCAR-4 ovarian was above 100 µM throughout. For the same compound, the TGI with SK-MEL-5 melanoma, in the test on SNB-19 CNS, with SR leukemia and in the test with T-47D breast was above 100 µM throughout.

Turning to `COC(=O)C1C(=O)N(C)C(=O)N2CCCC12` (stereo not drawn), the TGI in the test on 786-0 renal, in the test with A498 renal, with LOX IMVI melanoma, in the test with MALME-3M melanoma, with MDA-N and in the test with NCI-H522 lung was above 100 µM each time. The TGI with OVCAR-4 ovarian, in the test with SK-MEL-5 melanoma, in the test on SNB-19 CNS and in the test with T-47D breast was above 100 µM each time.

Consider `CCc1cc2c(c3c1CCCC3=O)CC1(Cc3ccc(C(=O)OC)cc3C1)C2` (stereo not drawn), for which the TGI in the test with 786-0 renal, in the test on A498 renal, with LOX IMVI melanoma, in the test with MALME-3M melanoma, in the test with MDA-N and in the test with NCI-H522 lung was above 100 µM each time. For the same compound, the TGI in the test with OVCAR-4 ovarian is above 100 µM; in the test on SK-MEL-5 melanoma, 30.1 µM; in the test on SNB-19 CNS, above 100 µM; in the test with T-47D breast, above 100 µM.

On to `Cc1ccccc1N=C(N)Nc1ccccc1C`, for which the TGI with 786-0 renal, in the test with A498 renal, with LOX IMVI melanoma, with MALME-3M melanoma, in the test on MDA-N and in the test on NCI-H522 lung was above 100 µM in each case. The TGI with OVCAR-4 ovarian, in the test with SK-MEL-5 melanoma, with SNB-19 CNS and in the test on T-47D breast was above 100 µM each time.

Consider `CCOC(=O)Nn1c(CC#N)nnc1Cc1ccccc1`, for which the TGI with 786-0 renal, with MALME-3M melanoma, with MDA-N, in the test on NCI-H522 lung, with SK-MEL-5 melanoma and in the test with SNB-19 CNS was above 100 µM in each case. In addition, the TGI in the test on SR leukemia and with T-47D breast was above 100 µM throughout.

As to `CC(Oc1ccccc1Cl)C(=O)NN1C(=O)CSC1c1ccccc1` (stereo not drawn), the TGI in the test on 786-0 renal, with A498 renal, in the test with LOX IMVI melanoma, with MDA-N, in the test on NCI-H522 lung and in the test with OVCAR-4 ovarian was above 100 µM in each case. The TGI in the test on SK-MEL-5 melanoma, with SNB-19 CNS, in the test on SR leukemia and in the test with T-47D breast was above 100 µM throughout.

On to `CN1C(=O)C(O)C[C@@H]1c1ccccc1` (stereo partly drawn), for which the TGI in the test with 786-0 renal, with LOX IMVI melanoma, with MALME-3M melanoma, in the test on MDA-N, with NCI-H522 lung and in the test on OVCAR-4 ovarian was above 100 µM in each case. The TGI in the test on SK-MEL-5 melanoma, in the test with SNB-19 CNS, with SR leukemia and in the test with T-47D breast was above 100 µM each time.

Consider `CC(C)(C)n1c(=O)[nH]c(=O)n1C(C)(C)C`, for which the TGI with 786-0 renal, in the test on A498 renal, in the test with LOX IMVI melanoma, in the test with MALME-3M melanoma, in the test on MDA-N and in the test on OVCAR-4 ovarian was above 100 µM throughout. The TGI in the test with SK-MEL-5 melanoma, in the test on SNB-19 CNS and with SR leukemia was above 100 µM each time.

In the case of `CCCCCCCCCCCCCCCCCCNc1nc(=O)n(C2CC(O)C(COP(=O)(O)O)O2)cc1F` (stereo not drawn), the TGI in the test on 786-0 renal, in the test on A498 renal, in the test on LOX IMVI melanoma, in the test with MALME-3M melanoma, in the test on MDA-N and in the test with NCI-H522 lung was above 100 µM throughout. Also, the TGI in the test on OVCAR-4 ovarian, in the test with SK-MEL-5 melanoma, with SNB-19 CNS and in the test with T-47D breast was above 100 µM in each case.

Turning to `CC(C)[C@H](NC(=O)[C@H](C(C)C)N(Cc1ccccc1)Cc1ccccc1)C(=O)N(C)[C@H](C(=O)N1CCC[C@H]1C(=O)N(C)[C@H](C)C(=O)NCc1ccc(Cl)cc1)C(C)C` (Bn2Val-V[NMeV]P[dNMeA]-{NH(4-Cl-benzyl)}), the TGI with 786-0 renal was 28.7 µM; in the test with LOX IMVI melanoma, 3.63 µM; with MALME-3M melanoma, above 29.7 µM; in the test on MDA-N, 30.9 µM; in the test with NCI-H522 lung it was 4.97 µM; with OVCAR-4 ovarian, above 100 µM. Besides, the TGI with SK-MEL-5 melanoma is 13.4 µM; with SNB-19 CNS, above 100 µM; in the test on SR leukemia it was above 100 µM; in the test with T-47D breast, above 100 µM.

`O=c1[nH]n(Cc2ccccc2)c2ccc([N+](=O)[O-])cc12`: the TGI in the test with 786-0 renal was above 100 µM; in the test with A498 renal, above 100 µM; in the test on LOX IMVI melanoma, above 100 µM; in the test with MALME-3M melanoma, above 100 µM; in the test on MDA-N, 99.6 µM; with NCI-H522 lung it was above 100 µM. The TGI in the test with OVCAR-4 ovarian, in the test with SK-MEL-5 melanoma, with SNB-19 CNS and in the test with SR leukemia was above 100 µM in each case.

Consider `COc1cc(C2C(Cl)C(=O)N2c2c(C)n(C)n(-c3ccccc3)c2=O)ccc1O` (stereo not drawn), for which the TGI with 786-0 renal came to 31.6 µM; in the test on LOX IMVI melanoma it was 32.2 µM; in the test on MALME-3M melanoma, 61.9 µM; in the test on MDA-N, 32.6 µM; in the test on NCI-H522 lung, 31 µM; with OVCAR-4 ovarian, 37.6 µM. In addition, the TGI is 53.7 µM with SK-MEL-5 melanoma, 58.6 µM with SR leukemia and above 100 µM in the test with T-47D breast.
